Reference: patent publication EP4768484A1, “HETEROCYCLIC FUSED RING COMPOUND, AND COMPOSITION AND USE THEREOF” (Shenzhen TargetRx, Inc., priority 2023, dated 2025)

Experiments:
Assay type in all cases: cell-based
[1] = tested on: K562 cells; assay: Cell growth inhibitory activity assay (CellTiter-Glo), K562 cells; conditions: Homo sapiens, 72 h, CTG cell viability
Procedure, shortened: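 K562 cells in logarithmic growth were counted, diluted and plated in 96-well plates, with medium-only blanks and a separate T0 plate read by CTG the following day. After overnight incubation, graded compound concentrations were added for 72 h, with 0.5% DMSO wells as growth controls. Luminescence was read on a Biotek cytation3.0, and IC50 came from nonlinear fitting in GraphPad Prism 7.0.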

[2] = target: T1, Ba/F3 BCR-ABL1 WT (Homo sapiens, UniProt P00519+P11274); assay: Cell growth inhibitory activity assay (CellTiter-Glo), Ba/F3 BCR-ABL1 WT cells; conditions: 72 h, CTG cell viability
T1 construct: BCR (N-terminal fusion partner of the oncoprotein); expressed in transfected cells; host or cells: Ba/F3 (lentiviral transduction, monoclonal line)
Procedure, shortened: (§1)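 Compound dilutions applied for 72 h (37 °C, 5% CO2) to overnight-plated Ba/F3 cells, parental or engineered to express WT/mutant BCR-ABL1. ATP-based CellTiter-Glo luminescence read, referenced to day-0 viability and 0.5% DMSO wells; IC50 fitted by four-parameter logistic curve.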

[3] = target: T2, Ba/F3 BCR-ABL1 T315I (Homo sapiens, UniProt P00519+P11274, T315I); assay: Cell growth inhibitory activity assay (CellTiter-Glo), Ba/F3 BCR-ABL1 T315I cells; conditions: 72 h, CTG cell viability
T2 construct: BCR (N-terminal fusion partner of the oncoprotein); expressed in transfected cells; host or cells: Ba/F3 (lentiviral transduction, monoclonal line)
Procedure, shortened: as §1

[4] = target: T3, Ba/F3 BCR-ABL1 T315M (Homo sapiens, UniProt P00519+P11274, T315M); assay: Cell growth inhibitory activity assay (CellTiter-Glo), Ba/F3 BCR-ABL1 T315M cells; conditions: 72 h, CTG cell viability
T3 construct: BCR (N-terminal fusion partner of the oncoprotein); expressed in transfected cells; host or cells: Ba/F3 (lentiviral transduction, monoclonal line)
Protocol: In this assay, the Celltiter-Glo (CTG) kit provided by Promega was used, and it is a homogeneous cell viability assay method. The cell viability of cultured cells was measured by quantifying ATP. K562 cells were purchased from Nanjing Kebai, product number CBP60529; Ba/F3 parental cells were purchased from RIKEN BRC, product number RCB0805; other cells containing BCR-ABL1 WT, BCR-ABL1 T315I, BCR-ABL1 T315M, BCR-ABL1 Y253H/E255K, BCR-ABL1 E255V/T3151, BCR-ABL1 A424T, BCR-ABL1 A337V, BCR-ABL1 P465S, BCR-ABL1 V468F, and BCR-ABL1 I502L were all monoclonal engineered cell lines obtained by transducting Ba/F3 parental cells with the lentivirus plasmids containing WT or corresponding mutated BCR-ABL1.
The steps of cell viability assay are as follows: • a) Cells in logarithmic growth phase were collected. Cell suspension was prepared and the cells were counted. Concentration of the cells was calculated. • b) The cell suspension was diluted to the required concentration and then added to the middle wells of a 96-well plate, and PBS was added to the edge wells. The wells with no cells and only culture medium were used as blank controls. • c) In addition to the cell plate used for compound analysis, another 96-well plate was prepared as a T0 plate, and 3-6 blank wells and 3-6 cell wells were added. The next day, CTG was used to test the cell viability as the T0 viability value of the cells. • d) The cell plate was incubated at 37 °C in a 5% CO2 incubator overnight. • e) The next day, each concentration of a compound subjected to a gradient dilution was added, and the cell plate was incubated at 37 °C in a 5% CO2 incubator for 72 h. The wells with no compound and only 0.5% DMSO were used as positive controls for cell growth. • f) CTG reagent (CellTiter-Glo kit) was added according to the manufacturer's instructions to test the cell viability value. • g) The plate was read using Biotek cytation3.0 microplate reader and the data were exported. • h) IC50 was calculated using GraphPad Prism 7.0 software.
The IC50 (half-maximal inhibitory concentration) of the compound was obtained using the following nonlinear fitting formula: Y = Bottom + (Top−Bottom)/(1+10^(∧)((LogIC50−X)*HillSlope)) [formula] • X: Log value of the compound concentration • Y: Inhibition rate (% inhibition) • Top: Maximum response • Bottom: Baseline response • HillSlope: Slope of the curve
The formula for calculating cell inhibition rate (inhibition rate %) was: [formula]

[5] = tested on: Ba/F3 parental cells; assay: Cell growth inhibitory activity assay (CellTiter-Glo), Ba/F3 parental cells; conditions: Mus musculus, BaF3, 72 h, CTG cell viability, read-out: IC50 Ba/F3 BCR-ABL1 Parental
Procedure, shortened: as §1

| IC50 [1] [nM] | Compound | IC50 [2] [nM] | IC50 [3] [nM] | IC50 [4] [nM] | IC50 [5] [nM] |
| --- | --- | --- | --- | --- | --- |
| ≤ 5 | C[C@@H]1CCS(=O)(=O)c2nc3cc(C(=O)Nc4ccc(OC(F)(F)Cl)cc4)cc(-c4cnc5c(c4)C(=O)N(C)C5)c3n21 [T-28, (R)-N-(4-(chlorodifluoromethoxy)phenyl)-4-methyl-6-(6-methyl-5-oxo-6,7-dihydro-5H-pyrrolo[3,4-b]pyridin-3-yl)-3,4-dihydro-2H-benzo[4,5]imidazo[2,1-b][1,3]thiazine-8-carboxamide 1,1-dioxide] | 5 to 50 | 5 to 50 | 50 to 1000 | > 1000 |
| ≤ 5 | CC(=O)N[C@@H]1CCC2c3cc(C(=O)Nc4ccc(OC(F)(F)Cl)cc4)cc(-c4cnccn4)c3N(C(C)C)C21 (stereo partly drawn) [T-12-B, (3R)-3-acetamido-N-(4-(chlorodifluoromethoxy)phenyl)-4-isopropyl-5-(pyrazin-2-yl)-1,2,3,3a,4,8b-hexahvdrocyclopentalblindole-7-carboxamide] | ≤ 5 | 5 to 50 | 50 to 1000 | > 1000 |
| ≤ 5 | C[C@@H]1CC[S+]([O-])c2nc3cc(C(=O)Nc4ccc(OC(F)(F)Cl)cc4)cc(-c4cnc5c(c4)C(=O)N(C)C5)c3n21 (stereo partly drawn) [T-27, (4R)-N-(4-(chlorodifluoromethoxy)phenyl)-4-methyl-6-(6-methyl-5-oxo-6,7-dihydro-5H-pyrrolo[3,4-b]pyridin-3-yl)-3,4-dihydro-2H-benzo[4,5]imidazo[2,1-b][1,3]thiazine-8-carboxamide 1-oxide] | 5 to 50 | 50 to 1000 | > 1000 | > 1000 |
| ≤ 5 | C[C@@H]1CCC(O)c2nc3cc(C(=O)Nc4ccc(OC(F)(F)Cl)cc4)cc(-c4cnc5c(c4)C(=O)N(C4CC4)C5)c3n21 (stereo partly drawn) [T-32, (1R)-N-(4-(chlorodifluoromethoxy)phenyl)-9-(6-cyclopropyl-5-oxo-6,7-dihydro-5H-pyrrolo[3,4-b]pyridin-3-yl)-4-hydroxy-1-methyl-1,2,3,4-tetrahydrobenzo[4,5]imidazo[1,2-a]pyridine-7-carboxamide] | ≤ 5 | 50 to 1000 | 50 to 1000 | > 1000 |
| 50 to 1000 | C[C@@H]1CN(C)CCc2nc3cc(C(=O)Nc4ccc(OC(F)(F)Cl)cc4)cc(-c4cnc5c(c4)C(=O)N(C4CC4)C5)c3n21 [T-37, (R)-N-(4-(chlorodifluoromethoxy)phenyl)-10-(6-cyclopropyl-5-oxo-6,7-dihydro-5H-pyrrolo[3,4-b]pyridin-3-yl)-1,3-dimethyl-2,3,4,5-tetrahydro-1H-benzo[4,5]imidazo[1,2-d][1,4]diazepine-8-carboxamide] | > 1000 | > 1000 | > 1000 | > 1000 |
| ≤ 5 | C[C@@H]1CCS(=O)(=O)c2nc3cc(C(=O)Nc4ccc(OC(F)(F)Cl)cc4)cc(-c4cnccn4)c3n21 [T-118, (R)-N-(4-(chlorodifluoromethoxy)phenyl)-4-methyl-6-(pyrazin-2-yl)-3,4-dihydro-2H-benzo[4,5]imidazo[2,1-b][1,3]thiazine-8-carboxamide 1,1-dioxide] | ≤ 5 | 5 to 50 | 50 to 1000 | > 1000 |
| ≤ 5 | Cc1ccnc(-n2cc3c(n2)-c2cc(-c4cc(C(=O)Nc5ccc(OC(F)(F)Cl)cc5)cc5nc6n(c45)[C@H](C)COC6)cnc2C3)n1 [T-73, (R)-N-(4-(chlorodifluoromethoxy)phenyl)-4-methyl-6-(2-(4-methylpyrimidin-2-yl)-2,4-dihydropyrazolo[3',4':3,4]cyclopenta[1,2-b]pyridin-7-yl)-3,4-dihydro-1H-benzo[4,5]imidazo[2,1-c][1,4]oxazine-8-carboxamide] | ≤ 5 | ≤ 5 | ≤ 5 | > 1000 |
| 5 to 50 | CC(=O)NC1CCC2c3cc(C(=O)Nc4ccc(OC(F)(F)Cl)cc4)cc(-c4cnccn4)c3N(C(C)C)C12 (racemic) [T-12, 3-acetamido-N-(4-(chlorodifluoromethoxy)phenyl)-4-isopropyl-5-(pyrazin-2-yl)-1,2,3,3a,4,8b-hexahydrocyclopenta[b]indole-7-carboxamide] | 5 to 50 | 50 to 1000 | – | > 1000 |
| ≤ 5 | C[C@@H]1COCc2nc3cc(C(=O)Nc4ccc(OC(F)(F)Cl)cc4)cc(-c4cnc5c(c4)-c4nn(-c6ncc7ccn(C)c7n6)cc4C5)c3n21 [T-85, (R)-N-(4-(chlorodifluoromethoxy)phenyl)-4-methyl-6-(2-(7-methyl-7H-pyrrolo[2,3-d]pyrimidin-2-yl)-2,4-dihydropyrazolo[3',4':3,4]cyclopenta[1,2-b]pyridin-7-yl)-3,4-dihydro-1H-benzo[4,5]imidazo[2,1-c][1,4]oxazine-8-carboxamide] | ≤ 5 | ≤ 5 | – | > 1000 |
| ≤ 5 | C[C@@H]1COCc2nc3cc(C(=O)Nc4ccc(OC(F)(F)Cl)cc4)cc(-c4cnc5c(c4)-c4nn(-c6nccc(-c7cncnc7)n6)cc4C5)c3n21 [T-100, (R)-6-(2-([4,5'-bipyrimidin]-2-yl)-2,4-dihydropyrazolo[3',4':3,4]cyclopenta[1,2-b]pyridin-7-yl)-N-(4-(chlorodifluoromethoxy)phenyl)-4-methyl-3,4-dihydro-1H-benzo[4,5]imidazo[2,1-c][1,4]oxazine-8-carboxamide] | ≤ 5 | ≤ 5 | – | > 1000 |
| ≤ 5 | C[C@@H]1COCc2nc3cc(C(=O)Nc4ccc(OC(F)(F)Cl)cc4)cc(-c4cnc5c(c4)-c4nn(-c6nccc(-c7cccnc7F)n6)cc4C5)c3n21 [T-95, (R)-N-(4-(chlorodifluoromethoxy)phenyl)-6-(2-(4-(2-fluoropyridin-3-yl)pyrimidin-2-yl)-2,4-dihydropyrazolo[3',4':3,4]cyclopenta[1,2-b]pyridin-7-yl)-4-methyl-3,4-dihydro-1H-benzo[4,5]imidazo[2,1-c][1,4]oxazine-8-carboxamide] | ≤ 5 | ≤ 5 | – | > 1000 |
| ≤ 5 | N#Cc1cnc(-n2cc3c(n2)-c2cc(-c4cc(C(=O)Nc5ccc(OC(F)(F)Cl)cc5)cnc4N4CC[C@@H](F)C4)cnc2C3)nc1 [T-128, (R)-N-(4-(chlorodifluoromethoxy)phenyl)-5-(2-(5-cyanopyrimidin-2-yl)-2,4-dihydropyrazolo[3',4':3,4]cyclopenta[1,2-b]pyridin-7-yl)-6-(3-fluoropyrrolidin-1-yl)nicotinamide] | ≤ 5 | ≤ 5 | – | > 1000 |
| ≤ 5 | Cc1cnc(-n2cc3c(n2)-c2cc(-c4cc(C(=O)Nc5ccc(OC(F)(F)Cl)cc5)cc5nc6n(c45)[C@H](C)COC6)cnc2C3)nc1 [T-74, (R)-N-(4-(chlorodifluoromethoxy)phenyl)-4-methyl-6-(2-(5-methylpyrimidin-2-yl)-2,4-dihydropyrazolo[3',4':3,4]cyclopenta[1,2-b]pyridin-7-yl)-3,4-dihydro-1H-benzo[4,5]imidazo[2,1-c][1,4]oxazine-8-carboxamide] | ≤ 5 | ≤ 5 | – | > 1000 |

| Compound | IC50 [1] [nM] | IC50 [2] [nM] | IC50 [3] [nM] | IC50 [4] [nM] | IC50 [5] [nM] |
| --- | --- | --- | --- | --- | --- |
| C[C@@H]1COCc2nc3cc(C(=O)Nc4ccc(OC(F)(F)Cl)cc4)cc(-c4cnc5c(c4)-c4c(cnn4CCOC(C)(C)C)C5)c3n21 [T-56-B, (R)-6-(1-(2-(tert-butoxy)ethyl)-1,4-dihydropyrazolo[3',4':3,4]cyclopenta[1,2-b]pyridin-7-yl)-N-(4-(chlorodifluoromethoxy)phenyl)-4-methyl-3,4-dihydro-1H-benzo[4,5]imidazo[2,1-c][1,4]oxazine-8-carboxamide] | ≤ 5 | ≤ 5 | > 1000 | – | > 1000 |
